# Data taken from US20200308165A1, “Compounds as Ras Inhibitors and Use Thereof” (D.E. Shaw Research, LLC, priority 2017, published 2020).
# Legend:
# KRAS4B (wild type) = molecular target: T1, KRAS4B (wild type) (Homo sapiens, UniProt P01116); experiment: K-Ras Nucleotide Exchange Assay-384 (SOS Exchange Assay by Cytoskeleton, GTPx_Cyt_IC50); assay type: biochemical; conditions: 1 μM KRAS4B, 0.05 μM SOS1, 1.5 μM mant-GDP
# T1 construct: purchased Cytoskeleton CS-RS03 (K-Ras4B); CS-SOS1-A (SOS1)
# Method: Example 16. Evaluation of Biological Activities: K-Ras Nucleotide Exchange Assay-384 (SOS Exchange Assay by Cytoskeleton (GTPx_Cyt_IC50))
# This assay is used to evaluate inhibitors of K-ras, by monitoring the inhibition of nucleotide exchange over time, in the presence of the protein SOS.
# 384-well black, untreated plates (Corning 3820 with NBS or 3821 untreated) were used. K-Ras4B Protein was used, which is wild-type (Cytoskeleton #CS-RS03) with a concnetration of 5 mg/ml, or 200 μM. Human SOS1 Protein, Exchange Domain 564-1049 (Cytoskeleton # CS-SOS1-A) was used in a concentration of 3.03 mg/ml or 50 μM. Mant-GDP triethylammonium salt solution was purchased from Sigma (catalog No. 69244). 1M stock solution of Hepes was purchased from Sigma (catalog No. H9897). 1M stock solution of MgCl2 was purchased from Sigma (catalog No. M4880). CHAPS, 3% was purchased from Sigma (catalog No. C5070). Nonidet P40 was purchased from Sigma. KOH pellets were purchased from Sigma.
# K-ras buffer containing 40 mM Hepes, 10 mM MgCl2, 0.05% CHAPS, 0.01% NP40 with a pH 7.5 was prepared as follows: to a Buffer base containing 4 ml 1M Hepes, 1 ml MgCl2,
# 93.3 ml d-H2O, pH 7.5 (with KOH pellets), 1.7 ml 3% CHAPS was added, followed by the addition of 1 ml 1% NP40.
# Final Conditions of the method included 1 μM KRAS4B (wild type), 0.05 μM SOS1, 1.5 μM mant-GDP. Reagent Preparation included: thawing aliquots of KRAS, SOS, and mant-GDP; preparing 3x KRAS (3 uM) in assay buffer; preparing 3x SOS/mant-GDP (150 nM/4.5 uM) in assay buffer; and preparing 3x compounds in assay buffer.
# Assay Procedure (1536) used 3.3 μl, 3x Kras, 3.3 μl 3x compound with preincubate 0 hour, and […] 3x SOS/mant-GDP. A kinetic read measuring fluorescence at 360_450 was performed for 30 min at 30 second intervals.
# Reference compound SCH 54292 (reversible inhibitor) at about 100 μM was used with no preincubation. Reagents were only stable for 45 min on ice, and therefore were prepared fresh before each assay. Partial plates (up to 9 columns) were run at a time to minimize effects due to the amount of time it takes to read a whole plate. SOS/mant-GDP were added with an automated pipettor to initiate all reactions at the same time. Assay was typically performed at 0.5% solution in DMSO (compounds prepared in 1.5% DMSO initially).
# Clariostar Settings were as follows. Test Name was Kras Kinetic 360-450. Basic settings of the test included Measurement type as Fluorescence (FI), and Microplate name as Corning 3820. Plate mode settings included 61 cycles, 30 second cycle time, and 10 flashes per well. Optic settings were as follows. Excitation wavelength was 360 nm. Emission wavelength was 450 nM. Excitation bandwidth was 12 nm. Emission bandwidth was 12 nm. Dichroic filter 405 was used. D6 Well(s) was used for gain adjustment. No shaking was used. General settings were as follows. Top optic was used. Settling time was 0.1 second. Reading direction was bidirectional, horizontal left to right, and bottom to top. The target temperature was 25° C.
# Ras protein = Ras protein (Homo sapiens, UniProt P01116); experiment: GDPx_Icagen_IC50: SOS1-mediated guanine nucleotide exchange rate of Ras (mant-GDP); assay type: biochemical; conditions: SOS1-initiated exchange
# From the text: (§1) In some embodiments, the IC50 assay measures the reduction effect of a given compound on the guanine nucleotide-echange rate of Ras protein in the presence of guanine nucleotide exchange protein SOS1, which is a Ras activator. In the assay GDP-loaded Ras was first prepared in a buffer containing the compound at certain concentration and fluorescent guanine nucleotide (mant-GDP (used in Icagene assay) or mant-GTP (used in other IC50 assays). The guanine nucleotide exchange was initiated by the addition of the SOS1 and its rate was reflected in the rate of fluorescence change as a function of time, which was monitored by a reader. The experiment was repeated at different compound concentrations and the IC50 of the compound was defined as the compound concentration at which half of its maximal reduction effect on the guanine nucleotide exchange rate is achieved. In other embodiments, other Ras activator proteins may be used. Non-limiting examples of other Ras activator proteins include RasGRP (Ras guanyl-releasing protein).
# Example 17. Evaluation of Biological Activities: GDPx_Icagen_ICso
# as §1, with “The IC50” for “In some embodiments, the IC50”, “guanine nucleotide-exchange” for “guanine nucleotide-echange”, “Ras is” for “Ras was”, “nucleotide (mant-GDP).” for “nucleotide (mant-GDP (used in Icagene assay) or mant-GTP (used in other IC50 assays).”, “achieved.” for “achieved. In other embodiments, other Ras activator proteins may be used. Non-limiting examples of other Ras activator proteins include RasGRP (Ras guanyl-releasing protein).”
# Ras protein, sequence (P01116 1-188 isoform P01116-2): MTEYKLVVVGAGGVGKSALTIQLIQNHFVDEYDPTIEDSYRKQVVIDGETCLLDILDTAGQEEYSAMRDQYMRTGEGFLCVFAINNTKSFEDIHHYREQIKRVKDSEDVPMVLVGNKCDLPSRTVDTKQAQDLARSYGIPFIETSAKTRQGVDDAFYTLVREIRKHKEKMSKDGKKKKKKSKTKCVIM
# T1 sequence (P01116 1-188 isoform P01116-2): as above
IC50 (KRAS4B (wild type)),IC50 (Ras protein),SMILES
3900 nM,800 nM,"O=c1cc(COc2ccccc2)[nH]n1-c1nc2ccccc2[nH]1 [Compound145, 2-(1H-benzo[d]imidazol-2-yl)-5-(phenoxymethyl)-1,2-dihydro-3H-pyrazol-3-one]"
–,50 nM,"CCc1csc(SCc2cc(=O)n(-c3nc4ccccc4[nH]3)[nH]2)n1 [Compound 139, 2-(1H-benzo[d]imidazol-2-yl)-5-(((4-ethylthiazol-2-yl)thio)methyl)-1H-pyrazol-3(2H)-one]"
30800 nM,1600 nM,"Cc1ccc(-n2[nH]c(CSc3ccccc3)cc2=O)nc1 [Compound 140, 2-(5-methylpyridin-2-yl)-5-((phenylthio)methyl)-1H-pyrazol-3(2H)-one]"
100000 nM,770 nM,"Cc1c(CSc2ccccc2)[nH]n(-c2nc3ccccc3[nH]2)c1=O [Compound 141, 2-(1H-benzo[d]imidazol-2-yl)-4-methyl-5-((phenylthio)methyl)-1H-pyrazol-3(2H)-one]"
1200 nM,170 nM,"O=c1cc(CSc2ccccn2)[nH]n1-c1nc2ccccc2[nH]1 [Compound 142, 2-(1H-benzo[d]imidazol-2-yl)-5-((pyridin-2-ylthio)methyl)-1H-pyrazol-3(2H)-one]"
5400 nM,2100 nM,"Cc1cc(C)nc(SCc2cc(=O)n(-c3ccccn3)[nH]2)n1 [Compound 143, 5-(((4,6-dimethylpyrimidin-2-yl)thio)methyl)-2-(pyridin-2-yl)-1,2-dihydro-3H-pyrazol-3-one]"
420 nM,300 nM,"O=c1cc(CSc2ccccc2)[nH]n1-c1nc2ccccc2[nH]1 [Compound 144, 2-(1H-benzo[d]imidazol-2-yl)-5-((phenylthio)methyl)-1,2-dihydro-3H-pyrazol-3-one]"
2600 nM,1800 nM,"Cc1cc(C)nc(SCc2cc(=O)n(-c3nc4ccccc4[nH]3)[nH]2)n1 [Compound 146, 2-(1H-benzo[d]imidazol-2-yl)-5-(((4,6-dimethylpyrimidin-2-yl)thio)methyl)-1,2-dihydro-3H-pyrazol-3-one]"
850 nM,3300 nM,"Cc1nnc(SCc2cc(=O)n(-c3nc4ccccc4[nH]3)[nH]2)s1 [Compound 147, 2-(1H-benzo[d]imidazol-2-yl)-5-(((5-methyl-1,3,4-thiadiazol-2-yl)thio)methyl)-1,2-dihydro-3H-pyrazol-3-one]"
550 nM,300 nM,"O=c1cc(CSCc2ccc(F)cc2)[nH]n1-c1nc2ccccc2[nH]1 [Compound 148, 2-(1H-benzo[d]imidazol-2-yl)-5-(((4-fluorobenzyl)thio)methyl)-1,2-dihydro-3H-pyrazol-3-one]"
410 nM,300 nM,"O=c1cc(CSc2nccc(C(F)(F)F)n2)[nH]n1-c1nc2ccccc2[nH]1 [Compound 149, 2-(1H-benzo[d]imidazol-2-yl)-5-(((4-(trifluoromethyl)pyrimidin-2-yl)thio)methyl)-1,2-dihydro-3H-pyrazol-3-one]"
980 nM,200 nM,"COc1cccc(SCc2cc(=O)n(-c3nc4ccccc4[nH]3)[nH]2)c1 [Compound 150, 2-(1H-benzo[d]imidazol-2-yl)-5-(((3-methoxyphenyl)thio)methyl)-1,2-dihydro-3H-pyrazol-3-one]"
400 nM,400 nM,"O=c1cc(CSc2nc(-c3ccccc3)cs2)[nH]n1-c1nc2ccccc2[nH]1 [Compound 151, 2-(1H-benzo[d]imidazol-2-yl)-5-(((4-phenylthiazol-2-yl)thio)methyl)-1,2-dihydro-3H-pyrazol-3-one]"
12800 nM,–,"Cc1cc(C)nc(SCc2cc(=O)n(-c3nc4ccc(Br)cc4s3)[nH]2)n1 [Compound 155, 2-(6-bromobenzo[d]thiazol-2-yl)-5-(((4,6-dimethylpyrimidin-2-yl)thio)methyl)-1,2-dihydro-3H-pyrazol-3-one]"
17600 nM,–,"Cc1cc(C)nc(SCc2cc(=O)n(-c3ccc(C(F)(F)F)cn3)[nH]2)n1 [Compound 157, 5-(((4,6-dimethylpyrimidin-2-yl)thio)methyl)-2-(5-(trifluoromethyl)pyridin-2-yl)-1,2-dihydro-3H-pyrazol-3-one]"
7400 nM,–,"O=c1cc(CSc2ccc(Br)cn2)[nH]n1-c1ccccn1 [Compound 160, 5-(((5-bromopyridin-2-yl)thio)methyl)-2-(pyridin-2-yl)-1,2-dihydro-3H-pyrazol-3-one]"
2700 nM,–,"O=c1cc(CSCc2ccc(F)cc2)[nH]n1-c1ccccn1 [Compound 161, 5-(((4-fluorobenzyl)thio)methyl)-2-(pyridin-2-yl)-1,2-dihydro-3H-pyrazol-3-one]"
–,63 nM,"O=c1cc(CSc2cc(Cl)cc(Cl)c2)[nH]n1-c1nc2ccccc2[nH]1 [Compound 175, 2-(1H-benzo[d]imidazol-2-yl)-5-(((3,5-dichlorophenyl)thio)methyl)-1,2-dihydro-3H-pyrazol-3-one]"
–,6000 nM,"O=c1cc(CSc2ccccc2)[nH]n1-c1cc(Br)ccn1 [Compound 176, 2-(4-bromopyridin-2-yl)-5-((phenylthio)methyl)-1,2-dihydro-3H-pyrazol-3-one]"
–,400 nM,"O=c1cc(CSc2nc3cccnc3s2)[nH]n1-c1nc2ccccc2[nH]1 [Compound 177, 2-(1H-benzo[d]imidazol-2-yl)-5-((thiazolo[5,4-b]pyridin-2-ylthio)methyl)-1,2-dihydro-3H-pyrazol-3-one]"
–,320 nM,"NC(=O)c1ccc(SCc2cc(=O)n(-c3nc4ccccc4[nH]3)[nH]2)cc1 [Compound 178, 4-(((1-(1H-benzo[d]imidazol-2-yl)-5-oxo-2,5-dihydro-1H-pyrazol-3-yl)methyl)thio)benzamide]"
–,4500 nM,"O=c1cc(CSc2ccccc2)[nH]n1-c1ncc[nH]1 [Compound 179, 2-(1H-imidazol-2-yl)-5-((phenylthio)methyl)-1,2-dihydro-3H-pyrazol-3-one]"
–,200 nM,"O=c1cc(CSc2nc(Cc3ccccc3)cs2)[nH]n1-c1nc2ccccc2[nH]1 [Compound 180, 2-(1H-benzo[d]imidazol-2-yl)-5-(((4-benzylthiazol-2-yl)thio)methyl)-1,2-dihydro-3H-pyrazol-3-one]"
–,2500 nM,"O=c1cc(CSc2cccnc2)[nH]n1-c1nc2ccccc2[nH]1 [Compound 181, 2-(1H-benzo[d]imidazol-2-yl)-5-((pyridin-3-ylthio)methyl)-1,2-dihydro-3H-pyrazol-3-one]"
–,3200 nM,"Cc1csc(SCc2cc(=O)n(-c3ccccn3)[nH]2)n1 [Compound 182, 5-(((4-methylthiazol-2-yl)thio)methyl)-2-(pyridin-2-yl)-1,2-dihydro-3H-pyrazol-3-one]"
